The assay concerns the target T1, MAGL protein (Homo sapiens, UniProt Q99685).
T1 sequence (Q99685 1-303): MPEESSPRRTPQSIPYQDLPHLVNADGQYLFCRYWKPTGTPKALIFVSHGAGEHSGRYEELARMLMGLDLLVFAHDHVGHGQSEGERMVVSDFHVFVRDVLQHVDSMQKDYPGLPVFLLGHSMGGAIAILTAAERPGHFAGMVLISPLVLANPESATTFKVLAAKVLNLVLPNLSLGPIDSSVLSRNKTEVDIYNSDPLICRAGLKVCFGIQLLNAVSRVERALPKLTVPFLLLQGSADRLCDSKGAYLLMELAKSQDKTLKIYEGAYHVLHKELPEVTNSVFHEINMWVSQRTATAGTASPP
The experiment in a line: 2-AG assay: MAGL inhibitory activity by hydrolysis of 2-arachidonoylglycerol to arachidonic acid, followed by mass spectrometry. Format: biochemical. Conditions: 8 μM 2-arachidonoylglycerol, 15 min preincubation, 30 min reaction at RT, RapidFire MS readout. An outline of the steps: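 MAGL was preincubated 15 min at RT with compound (12.5 to […], 3-fold steps) in 50 mM TRIS, 1 mM EDTA, 0.01% Tween-20, 2.5% DMSO. The reaction ran 30 min at RT with 8 μM 2-AG. Arachidonic acid was quantified by RapidFire SPE-MS/MS against a d8-arachidonic acid internal standard.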

Results on 49 compounds are retold here after patent publication US20250099448A1, “HETEROCYCLIC COMPOUNDS” (Hoffmann-La Roche Inc., priority 2022, published 2025).

For orientation: IC50 means the midpoint of a concentration-inhibition curve. In turn, `O=C(N1CC2(CC(c3nnc(C4CC4)[nH]3)C2)C1)N1CC2(C1)CN(c1ncc(C(F)(F)F)cn1)C2` [compound 694] gave an IC50 of 236 nM.
`CS(=O)(=O)c1ccc(CC2CC3(C2)CN(C(=O)N2CC4(CC(c5nnc(C6(O)CC6)[nH]5)C4)C2)C3)cc1` [compound 13] yielded an IC50 of 4.72 nM.
The compound `CC(C)(C)c1nnc(CN2CC3(C2)CN(C(=O)N2CC4(CC(c5nc(C6CC6)n[nH]5)C4)C2)C3)s1` [compound 487] showed an IC50 of 9.82 nM.
Turning to `O=C(N1CC(NCc2ccc(C(F)(F)F)cc2F)C1)N1CC2(CC(c3nnc(C4CCC4)[nH]3)C2)C1` [compound 206], the IC50 came out at 232 nM. This IC50 lies about 24-fold higher than the previous one.
On to `O=C(N1CC2(CC(Oc3cncc(C(F)(F)F)n3)C2)C1)N1CC2(CC(c3nnc(C4CC4)[nH]3)C2)C1` [compound 133], for which the IC50 was 1.73 nM.
Then `N=S(=O)(c1ccc(CC2CC3(C2)CN(C(=O)N2CC4(CC(c5nc(C6(O)CC6)n[nH]5)C4)C2)C3)cc1)C(F)(F)F` (stereo not shown) [compound 555], with 0.34 nM; and `O=C(N1CC2(CC(Cc3nc(C(F)(F)F)c[nH]3)C2)C1)N1CC2(CC(c3nc(C4CC4)n[nH]3)C2)C1` [compound 524], with 1.4 nM; and `O=C(N1CC(c2ccc(-c3nnc(C4(C(F)(F)F)CC4)[nH]3)cc2)C1)N1CC2(CC(c3nc(C4CC4)n[nH]3)C2)C1` [compound 377], with 4.29 nM.
In turn, `O=C(N1CC2(CC(Cc3nnc(C4(C(F)(F)F)CC4)o3)C2)C1)N1CC2(CC(c3nc(C4CC(F)(F)C4)n[nH]3)C2)C1` [compound 738] gave an IC50 of 328 nM.
`O=C(N1CC2(CCN(S(=O)(=O)c3ccc(C(F)(F)F)cc3F)CC2)C1)N1CC2(CC(c3nnc(C4CC4)[nH]3)C2)C1` [compound 240]: the half-maximal inhibitory concentration (IC50) turned out to be 1.27 nM.
With `O=C(N1CC(c2ccc(N3CC(C(F)(F)F)C3)cc2)C1)N1CC2(CC(c3nnc(C4CC4)[nH]3)C2)C1` [compound 261], it took 0.36 nM to reach half-maximal inhibition (IC50).
Consider `COc1cc(F)cc(C23CC(C4CN(C(=O)N5CC6(CC(c7nc(C8CC8)n[nH]7)C6)C5)C4)(C2)C3)c1` [compound 705], for which the IC50 is 0.57 nM.
On to `Cn1ccc(CN2CC3(C2)CN(C(=O)N2CC4(CC(c5nc(C6CC6)n[nH]5)C4)C2)C3)n1` [Example 902, [6-(3-cyclopropyl-1H-1,2,4-triazol-5-yl)-2-azaspiro[3.3]heptan-2-yl]-[6-[(1-methylpyrazol-3-yl)methyl]-2,6-diazaspiro[3.3]heptan-2-yl]methanone], for which the IC50 is 3110 nM.
`O=C(N1CC2(CC(c3nc(C4CC4)n[nH]3)C2)C1)N1CC2(CN(Cc3cc(C(F)(F)F)sn3)C2)C1` [compound 675]: half-maximal inhibition (IC50) was put at 8.76 nM.
`COC(=O)c1ccccc1CN1CC2(C1)CN(C(=O)N1CC3(CC(c4nnc(C5CC5)[nH]4)C3)C1)C2` [Example 171, methyl 2-[[2-[6-(5-cyclopropyl-4H-1,2,4-triazol-3-yl)-2-azaspiro[3.3]heptane-2-carbonyl]-2,6-diazaspiro[3.3]heptan-6-yl]methyl]benzoate] registered an IC50 of 9.21 nM.
As for `O=C(N1CC2(CCC(Cc3ncc(F)cc3F)C2)C1)N1CC2(CC(c3nnc(C4CC4)[nH]3)C2)C1` (single isomer, unassigned) [compound 148], the figure is 0.17 nM; as for `O=C(N1CC2(CC(c3nnc(C4CC4)[nH]3)C2)C1)N1CC2(C1)CN(C(=O)C(F)(F)F)C2` [Example 217, 1-[2-[6-(5-cyclopropyl-4H-1,2,4-triazol-3-yl)-2-azaspiro[3.3]heptane-2-carbonyl]-2,6-diazaspiro[3.3]heptan-6-yl]-2,2,2-trifluoro-ethanone], 3580 nM.
Regarding `O=C(N1CC2(CC(Cc3ccc4nc(C(F)(F)F)cn4c3)C2)C1)N1CC2(CC(c3nc(C4CC4)n[nH]3)C2)C1` [compound 990], the IC50 was 0.59 nM.
Regarding `O=C(N1CC(C23CC(C(F)(F)c4ccc(C(F)(F)F)cc4)(C2)C3)C1)N1CC2(CC(c3nc(C4(O)CC4)n[nH]3)C2)C1` [compound 974], the IC50 is 6.17 nM.
In the case of `Cc1cc(C(F)(F)F)nn1CC1CC2(C1)CN(C(=O)N1CC3(CC(c4nc(C5CC5)n[nH]4)C3)C1)C2` [compound 445], the IC50 is 0.24 nM. This IC50 is about 26-fold lower than that of the compound before.
`Cn1nc(CC2CC3(C2)CN(C(=O)N2CC4(CC(c5nc(C6CC(F)(F)C6)n[nH]5)C4)C2)C3)cc1C(F)(F)F` [compound 511] came in with an IC50 of 20.8 nM.
Consider `CC(C)(Oc1ccc(C2CN(C(=O)N3CC4(CC(c5nnc(C6(O)CC6)[nH]5)C4)C3)C2)cc1)C(F)(F)F` [compound 368], for which the IC50 was determined as 0.17 nM.
As for `O=C(N1CC2(CC(Cc3ncc(Cl)cc3F)C2)C1)N1CC2(CC(c3nc(C4CC4)n[nH]3)C2)C1` [compound 613], the figure is 0.91 nM; as for `NC(=O)c1cc(Cl)cnc1OCC1CCN(C(=O)N2CC3(CC(c4nc(C5CC5)n[nH]4)C3)C2)CC1` [Example 899], 100 nM; as for `O=C(N1CC(c2ccc(C3CC(O)(C(F)(F)F)C3)cc2)C1)N1CC2(CC(c3nnc(C4CC4)[nH]3)C2)C1` (stereo not shown) [compound 291], 0.57 nM.
In turn, `O=C(N1CC(C23CC(NCC4(C(F)(F)F)CC4)(C2)C3)C1)N1CC2(CC(c3nnc(C4CC4)[nH]3)C2)C1` [compound 342] returned an IC50 of 0.49 nM. This IC50 and that of the compound before are within 1.5-fold of each other.
Turning to `O=C(N1CC2(CCC(Cc3ncc(F)cc3F)C2)C1)N1CC2(CC(c3nnc(C4CC4)[nH]3)C2)C1` (single isomer, unassigned) [compound 149], it took 0.39 nM to reach half-maximal inhibition (IC50).
With `O=C(N1CC2(CC(c3nnc(C4(O)CC4)[nH]3)C2)C1)N1CC2(C1)CN(S(=O)(=O)c1cccc(C(F)(F)F)c1)C2` [compound 100], half-maximal inhibition (IC50) was put at 66.1 nM.
With `CC(C)S(=O)(=O)c1ccc(C2CN(C(=O)N3CC4(CC(c5nnc(C6CC6)[nH]5)C4)C3)C2)c(Cl)c1` [compound 247], the IC50 came out at 3.7 nM.
`O=C(N1CC(c2ccc(N3CC4(CCOC4)C3)nc2)C1)N1CC2(CC(c3nnc(C4CC4)[nH]3)C2)C1` [compound 290] returned an IC50 of 21 nM.
In turn, `NC(=O)[C@@H]1CCCN1c1ccc(C2CN(C(=O)N3CC4(CC(c5nnc(C6CC6)[nH]5)C4)C3)C2)cc1` [Example 397, (2S)-1-[4-[1-[6-(5-cyclopropyl-4H-1,2,4-triazol-3-yl)-2-azaspiro[3.3]heptane-2-carbonyl]azetidin-3-yl]phenyl]pyrrolidine-2-carboxamide] registered an IC50 of 2.42 nM.
Take `Cc1cc(C2CC2)nn1CC1CC2(C1)CN(C(=O)N1CC3(CC(c4nc(C5CC5)n[nH]4)C3)C1)C2` [compound 847]: half-maximal inhibition (IC50) was put at 0.53 nM.
On to `O=C(N1CC(Oc2ccc(C(F)(F)F)c(C3CC3)c2)C1)N1CC2(CC(c3nnc(C4(O)CC4)[nH]3)C2)C1` [compound 319], for which the IC50 amounted to 8.04 nM.
Compound `O=C(N1CC2(CC(Cc3cc(C(F)F)[nH]n3)C2)C1)N1CC2(CC(c3nc(C4CC4)n[nH]3)C2)C1` [compound 610] yielded an IC50 of 0.4 nM.
The compound `O=C(N1CC2(CCC(S(=O)(=O)c3ccc(C(F)(F)F)cc3)CC2)C1)N1CC2(CC(c3nc(C4CC4)n[nH]3)C2)C1` [compound 723] yielded a 50% inhibitory concentration (IC50) of 1.37 nM. This IC50 lies about 3.4-fold higher than the previous one.
As for `N=S(=O)(c1ccc(CC2CC3(C2)CN(C(=O)N2CC4(CC(c5nc(C6COC6)n[nH]5)C4)C2)C3)cc1)C(F)(F)F` (stereo not shown) [compound 782], the IC50 was determined as 17.8 nM.
`COc1cc(C(N)=O)ccc1COC1CCN(C(=O)N2CC3(CC(c4nnc(C5CC5)[nH]4)C3)C2)CC1` [Example 885, 4-[[1-[6-(5-cyclopropyl-4H-1,2,4-triazol-3-yl)-2-azaspiro[3.3]heptane-2-carbonyl]-4-piperidyl]oxymethyl]-3-methoxy-benzamide]: the IC50 stood at 352 nM.
`O=C(N1CC2(CC(Cc3ccc(C(F)(F)F)cc3F)C2)C1)N1CC2(CC(c3nnc(C4(O)CC4)[nH]3)C2)C1` [compound 38]: the IC50 came out at 0.01 nM.
Regarding `O=C(N1CC2(CC(c3nc(C4CC4)n[nH]3)C2)C1)N1CC2(CC[C@@H](Cc3cccc(S(=O)(=O)C(F)(F)F)c3)C2)C1` [compound 543], inhibition was half-maximal at 0.02 nM (IC50).
Compound `O=C(N1CC2(CC(Cc3cc(F)cc(C(F)(F)F)c3)C2)C1)N1CC2(CC(c3nc(C4COC4)n[nH]3)C2)C1` [compound 742] gave an IC50 of 2.18 nM.
In the case of `O=C(N1CC(c2cnc(N3CC(C(F)(F)F)C3)nc2)C1)N1CC2(CC(c3nnc(C4CC4)[nH]3)C2)C1` [compound 263], half-maximal inhibition (IC50) required 8.21 nM.
As for `N#Cc1cc(C(F)(F)F)ccc1CC1CC2(C1)CN(C(=O)N1CC3(CC(c4nnc(C5(O)CC5)[nH]4)C3)C1)C2` [compound 477], the figure is 0.08 nM.
As for `O=C(N1CC(c2ccc(C3(C(F)(F)F)CC3)cc2)C1)N1CC2(CC(c3ncn[nH]3)C2)C1` [compound 635], the figure is 950 nM; as for `CS(=O)(=O)c1cc(F)ccc1OC1CCC2(CC1)CN(C(=O)N1CC3(CC(c4nnc(C5CC5)[nH]4)C3)C1)C2` [compound 355], 8.86 nM.
As for `O=C(N1CC2(CC(Cc3ncc(F)cc3F)C2)C1)N1CC2(CC(c3ncn[nH]3)C2)C1` [compound 988], the figure is 2070 nM; as for `O=C(N1CC(c2cnc(N3CC[C@@H](C(F)(F)F)C3)nc2)C1)N1CC2(CC(c3nc(C4CC4)n[nH]3)C2)C1` [compound 666], 2.2 nM.
As to `O=C(N1CC(c2ccc(N3CCC(O)(C(F)(F)F)C3)nc2)C1)N1CC2(CC(c3nnc(C4CC4)[nH]3)C2)C1` (single isomer, unassigned) [compound 271], the midpoint of inhibition, the IC50, lay at 2.73 nM.
Take `N#Cc1cc(C(F)(F)F)ncc1C[C@@H]1CCC2(C1)CN(C(=O)N1CC3(CC(c4nnc(C5CC5)[nH]4)C3)C1)C2` [compound 669]: the IC50 turned out to be 0.65 nM.
Take `O=C(N1CC(NS(=O)(=O)c2cccc(C(F)(F)F)c2)C1)N1CC2(CC(c3nnc(C4CC4)[nH]3)C2)C1` [compound 202]: 332 nM corresponded to half-maximal inhibition (IC50).
